Measured values published in ChEMBL document CHEMBL1955818, “Might the observed α(2A)-adrenoreceptor agonism or antagonism of allyphenyline analogues be ascribed to different molecular conformations?” (Bioorg Med Chem, 2012).

Tests used:
[1] = molecular target: T1, Alpha-2B adrenergic receptor (Homo sapiens) (UniProt P18089); assay: Intrinsic activity at human adrenoceptor aplha 2B expressed in CHO cells by cytosensor microphysiometric analysis relative to (-)-noradrenaline; format: cell-based
T1 sequence (whole entry): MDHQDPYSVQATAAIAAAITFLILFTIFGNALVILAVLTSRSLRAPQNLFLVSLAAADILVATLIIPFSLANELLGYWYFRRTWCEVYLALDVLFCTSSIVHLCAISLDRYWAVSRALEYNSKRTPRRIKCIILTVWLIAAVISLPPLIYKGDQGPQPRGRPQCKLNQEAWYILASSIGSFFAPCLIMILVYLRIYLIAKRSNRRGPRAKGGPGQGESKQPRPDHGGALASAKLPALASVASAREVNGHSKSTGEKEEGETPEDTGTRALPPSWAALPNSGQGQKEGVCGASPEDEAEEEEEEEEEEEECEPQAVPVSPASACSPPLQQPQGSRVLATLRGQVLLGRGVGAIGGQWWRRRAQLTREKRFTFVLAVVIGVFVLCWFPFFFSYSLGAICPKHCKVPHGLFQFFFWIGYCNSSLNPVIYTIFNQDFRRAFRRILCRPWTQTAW

[2] = molecular target: T2, Alpha-2B adrenergic receptor (Homo sapiens, UniProt P18089); assay: Agonist activity at human adrenoceptor aplha 2B expressed in CHO cells assessed as rate of extracellular acidification by cytosensor microphysiometric analysis; format: functional, cell-based
T2 sequence (P18089 whole entry): T1 sequence (whole entry)

[3] = molecular target: T3, Alpha-2C adrenergic receptor (Homo sapiens) (UniProt P18825); assay: Intrinsic activity at human adrenoceptor aplha 2C expressed in CHO cells by cytosensor microphysiometric analysis relative to (-)-noradrenaline; format: cell-based
T3 sequence (whole entry): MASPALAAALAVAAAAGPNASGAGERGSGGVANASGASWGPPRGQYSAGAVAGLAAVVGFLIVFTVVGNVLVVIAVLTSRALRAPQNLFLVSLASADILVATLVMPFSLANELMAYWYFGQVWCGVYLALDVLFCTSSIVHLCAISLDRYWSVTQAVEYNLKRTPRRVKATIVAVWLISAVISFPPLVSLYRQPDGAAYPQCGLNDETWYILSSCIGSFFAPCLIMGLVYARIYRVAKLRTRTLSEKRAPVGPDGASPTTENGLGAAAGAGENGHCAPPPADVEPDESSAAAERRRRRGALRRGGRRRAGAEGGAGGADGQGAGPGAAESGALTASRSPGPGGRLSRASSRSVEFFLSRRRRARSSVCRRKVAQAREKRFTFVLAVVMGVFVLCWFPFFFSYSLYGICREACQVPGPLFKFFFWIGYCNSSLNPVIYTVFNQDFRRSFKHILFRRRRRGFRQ

[4] = molecular target: T4, Alpha-2C adrenergic receptor (Homo sapiens, UniProt P18825); assay: Agonist activity at human adrenoceptor aplha 2C expressed in CHO cells assessed as rate of extracellular acidification by cytosensor microphysiometric analysis; format: functional, cell-based
T4 sequence (P18825 whole entry): T3 sequence (whole entry)

[5] = molecular target: T4, Alpha-2C adrenergic receptor; assay: Displacement of [3H]RS-79948-197 from human adrenoceptor aplha 2C expressed in CHO cells; format: cell-based
[6] = molecular target: T2, Alpha-2B adrenergic receptor; assay: Displacement of [3H]RS-79948-197 from human adrenoceptor aplha 2B expressed in CHO cells; format: cell-based
[7] = molecular target: T5, Alpha-2A adrenergic receptor (Homo sapiens, UniProt P08913); assay: Displacement of [3H]RS-79948-197 from human adrenoceptor aplha 2A expressed in CHO cells; format: cell-based
T5 sequence (P08913 whole entry): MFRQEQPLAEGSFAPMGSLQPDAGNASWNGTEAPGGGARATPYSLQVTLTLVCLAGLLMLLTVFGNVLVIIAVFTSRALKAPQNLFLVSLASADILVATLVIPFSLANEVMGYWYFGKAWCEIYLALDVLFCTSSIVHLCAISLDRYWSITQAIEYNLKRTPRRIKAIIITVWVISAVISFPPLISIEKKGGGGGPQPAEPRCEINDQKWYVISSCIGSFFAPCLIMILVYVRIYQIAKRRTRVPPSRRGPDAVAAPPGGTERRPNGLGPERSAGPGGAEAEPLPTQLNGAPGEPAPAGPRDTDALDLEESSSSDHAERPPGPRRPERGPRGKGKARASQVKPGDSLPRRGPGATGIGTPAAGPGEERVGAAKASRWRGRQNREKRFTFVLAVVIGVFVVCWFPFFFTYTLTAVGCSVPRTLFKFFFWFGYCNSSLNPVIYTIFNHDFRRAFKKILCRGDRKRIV

[8] = molecular target: T5, Alpha-2A adrenergic receptor; assay: Agonist activity at human adrenoceptor aplha 2A expressed in CHO cells assessed as rate of extracellular acidification by cytosensor microphysiometric analysis; format: functional, cell-based
[9] = molecular target: T6, Alpha-2A adrenergic receptor (Homo sapiens) (UniProt P08913); details: CHO
T6 sequence (whole entry): T5 sequence (P08913 whole entry)
Description: Antagonist activity at human adrenoceptor aplha 2A expressed in CHO cells assessed as inhibition of clonidine-induced response by cytosensor microphysiometric analysis

For `CC(Oc1c(Cl)cccc1Cl)C1=NCCN1` (centres undefined) [LOFEXIDINE], the Intrinsic activity [1] was 0.8, the EC50 [2] was 126 nM and the Intrinsic activity [3] was 0.8. The EC50 [4] was 1.38 nM, the Ki [5] was 69.2 nM and the Ki [6] was 67.6 nM.
For `Cc1cccc(C)c1OC(C)C1=NCCN1` (centres undefined), the Intrinsic activity [1] was 0.8, the EC50 [2] was 1480 nM and the Intrinsic activity [3] was 0.82. It also gave a Ki [7] of 11.7 nM, an EC50 [4] of 27.5 nM and an EC50 [8] of 18.6 nM. It also gave a Ki [5] of 251 nM and a Ki [6] of 182 nM.
Work on `CC(Oc1ccccc1C(C)C)C1=NCCN1` (centres undefined) yielded an Intrinsic activity [1] of 0.54, a pKb [9] of 6.82 and an EC50 [2] of 251 nM. The Intrinsic activity [3] was 0.73, the Ki [7] was 72.4 nM and the EC50 [4] was 398 nM. The Ki [5] was 457 nM and the Ki [6] was 933 nM.
With `CC(Oc1ccccc1C=O)C1=NCCN1` (centres undefined) the Intrinsic activity [1] was 0.5, the EC50 [2] was 316 nM and the Intrinsic activity [3] was 0.6. It also gave a Ki [7] of 1050 nM, an EC50 [4] of 100 nM and an EC50 [8] of 31.6 nM. The Ki [5] was 8710 nM and the Ki [6] was 2090 nM.
In the case of `CC(Oc1ccccc1S(C)(=O)=O)C1=NCCN1` (centres undefined), the Intrinsic activity [1] is reported as 0.45, the EC50 [2] is reported as 10000 nM and the Intrinsic activity [3] is reported as 0.6. The Ki [7] was 3160 nM, the EC50 [4] was 316 nM and the EC50 [8] was 562 nM. It also gave a Ki [5] of 3800 nM and a Ki [6] of 51300 nM.
In the case of `CC(Oc1ccccc1Cl)C1=NCCN1` (centres undefined), the Intrinsic activity [1] is reported as 0.44, the pKb [9] is reported as 7.2 and the EC50 [2] is reported as 162 nM. The Intrinsic activity [3] was 0.83, the Ki [7] was 28.8 nM and the EC50 [4] was 166 nM. The Ki [5] was 490 nM and the Ki [6] was 331 nM.
Work on `CC(=O)c1ccccc1OC(C)C1=NCCN1` (centres undefined) yielded an Intrinsic activity [1] of 0.6, an EC50 [2] of 295 nM and an Intrinsic activity [3] of 0.65. It also gave a Ki [7] of 1020 nM, an EC50 [4] of 200 nM and an EC50 [8] of 63.1 nM. It also gave a Ki [5] of 7410 nM and a Ki [6] of 6170 nM.
Molecule `CC(Oc1ccccc1C(F)(F)F)C1=NCCN1` (centres undefined) has an Intrinsic activity [1] of 0.4, a pKb [9] of 6.42 and an EC50 [2] of 240 nM. It also gave an Intrinsic activity [3] of 0.72, a Ki [7] of 182 nM and an EC50 [4] of 794 nM. It also gave a Ki [5] of 977 nM and a Ki [6] of 1620 nM.
Work on `CC(Oc1ccccc1OC1CC1)C1=NCCN1` (centres undefined) yielded an Intrinsic activity [1] of 0.6, a pKb [9] of 6.9 and an EC50 [2] of 12900 nM. It also gave an Intrinsic activity [3] of 0.7, a Ki [7] of 83.2 nM and an EC50 [4] of 47.9 nM. It also gave a Ki [5] of 676 nM and a Ki [6] of 1050 nM.
In the case of `CC(C)Oc1ccccc1OC(C)C1=NCCN1` (centres undefined), the Intrinsic activity [1] is reported as 0.5, the pKb [9] is reported as 6.82 and the EC50 [2] is reported as 1740 nM. It also gave an Intrinsic activity [3] of 0.7, a Ki [7] of 83.2 nM and an EC50 [4] of 100 nM. For the same molecule, the Ki [5] was 398 nM and the Ki [6] was 1580 nM.
`CC(Oc1ccccc1Br)C1=NCCN1` (centres undefined) was tested, and the Intrinsic activity [1] was 0.4, the pKb [9] was 7.04 and the EC50 [2] was 316 nM. The Intrinsic activity [3] was 0.87, the Ki [7] was 22.9 nM and the EC50 [4] was 10 nM. It also gave a Ki [5] of 282 nM and a Ki [6] of 355 nM.
With `C=CCc1cccc(CC=C)c1OC(C)C1=NCCN1` (centres undefined) the Intrinsic activity [1] was 0.65, the pKb [9] was 8.56 and the EC50 [2] was 501 nM. The Intrinsic activity [3] was 0.9, the Ki [7] was 16.6 nM and the EC50 [4] was 56.2 nM. The Ki [5] was 129 nM and the Ki [6] was 275 nM.
Work on `CCc1ccccc1OC(C)C1=NCCN1` (centres undefined) yielded an Intrinsic activity [1] of 0.5, a pKb [9] of 6 and an EC50 [2] of 10000 nM. It also gave an Intrinsic activity [3] of 0.6, a Ki [7] of 24 nM and an EC50 [4] of 100 nM. It also gave a Ki [5] of 288 nM and a Ki [6] of 282 nM.
With `CCc1cccc(CC)c1OC(C)C1=NCCN1` (centres undefined) the Intrinsic activity [1] was 0.8, the EC50 [2] was 1000 nM and the Intrinsic activity [3] was 0.65. The Ki [7] was 31.6 nM, the EC50 [4] was 27.5 nM and the EC50 [8] was 11.7 nM. It also gave a Ki [5] of 275 nM and a Ki [6] of 269 nM.
For `CC(Oc1ccccc1CC1CC1)C1=NCCN1` (centres undefined) [CYCLOMETHYLINE], the Intrinsic activity [1] was 0.7, the EC50 [2] was 3310 nM and the Intrinsic activity [3] was 0.8. The Ki [7] was 36.3 nM, the EC50 [4] was 2 nM and the Ki [5] was 275 nM. For the same molecule, the Ki [6] was 407 nM.
In the case of `COc1ccccc1OC(C)C1=NCCN1` (centres undefined), the Intrinsic activity [1] is reported as 0.5, the pKb [9] is reported as 6.6 and the EC50 [2] is reported as 100000 nM. The Intrinsic activity [3] was 0.6, the Ki [7] was 57.5 nM and the EC50 [4] was 9770 nM. For the same molecule, the Ki [5] was 832 nM and the Ki [6] was 871 nM.
For `CC(Oc1c(-c2ccccc2)cccc1-c1ccccc1)C1=NCCN1` (centres undefined), the Intrinsic activity [1] was 0.6, the pKb [9] was 8 and the EC50 [2] was 200 nM. It also gave an Intrinsic activity [3] of 0.7, a Ki [7] of 490 nM and an EC50 [4] of 79.4 nM. The Ki [5] was 631 nM and the Ki [6] was 4570 nM.
With `C=COc1ccccc1OC(C)C1=NCCN1` (centres undefined) the Intrinsic activity [1] was 0.45, the pKb [9] was 5 and the EC50 [2] was 3160 nM. The Intrinsic activity [3] was 0.48 and the EC50 [4] was 631 nM.
`C=C(C)c1ccccc1OC(C)C1=NCCN1` (centres undefined) gave an Intrinsic activity [1] of 0.4, a pKb [9] of 7 and an EC50 [2] of 1580 nM. For the same molecule, the Intrinsic activity [3] was 0.71, the Ki [7] was 72.4 nM and the EC50 [4] was 115 nM. It also gave a Ki [5] of 603 nM and a Ki [6] of 871 nM.
`CCOc1ccccc1OC(C)C1=NCCN1` (centres undefined) showed an Intrinsic activity [1] of 0.5, a pKb [9] of 6.5 and an EC50 [2] of 3160 nM. For the same molecule, the Intrinsic activity [3] was 0.45, the Ki [7] was 97.7 nM and the EC50 [4] was 10000 nM. It also gave a Ki [5] of 759 nM and a Ki [6] of 1320 nM.
